# Measurements from patent US10786450B2, “Process for preparing a dry powder formulation comprising an anticholinergic, a corticosteroid and a beta-adrenergic” (CHIESI FARMACEUTICI S.p.A., priority 2017, dated 2020).
# Experiments:
# [1] = micronized active ingredient as used in Example 3
# Protocol: The size of the particles active is determined by measuring the characteristic equivalent sphere diameter, known as volume diameter, by laser diffraction.
# Microparticles as obtained in Example 2 were used. […] Beclometasone dipropionate (BDP) having the following particle size was used: d(v0.1)=0.7 micron; d(v0.5)=1.5 micron; and d(v0.9)=2.8 micron.
# [2] = Aerosol performance by Next Generation Impactor (NGI) from multidose dry powder inhaler; type: physicochemical; details: Example 3 powder formulation; for Mid Fine particle Fraction: 2.0 to 5.0 microns; for Delivered Dose: multidose DPI of WO 2004/012801, 3 doses; for Mid Fine Particle Mass: particle size between 2.0 and 5.0 microns; for Fine Particle Mass: particle size equal to or lower than 5.0 microns; for Fine Particle Fraction: ratio fine particle mass to delivered dose
# Excerpt: After aerosolization of 3 doses from the inhaler device, the NGI apparatus was disassembled and the amounts of drug deposited in the stages were recovered by washing with a solvent mixture and then quantified by High-Performance Liquid Chromatography (HPLC). […] (v) the fine particle fraction (FPF) which is the ratio between the fine particle mass and the delivered dose; and (vi) the MMAD.
compound,measurement,setting,value
"CCC(=O)OCC(=O)[C@@]1(OC(=O)CC)[C@@H](C)C[C@H]2[C@@H]3CCC4=CC(=O)C=C[C@]4(C)[C@@]3(Cl)[C@@H](O)C[C@@]21C [BDP, beclometasone dipropionate]",d(v0.1),[1],0.7 micron
same,d(v0.5),[1],1.5 micron
same,d(v0.9),[1],2.8 micron
same,Extrafine Particle Fraction <1 μm,[2],13.9%
same,Extrafine Particle Fraction <2 μm,[2],32.1%
same,Extrafine Particle Mass <1 μm,[2],12.4 µg
same,Extrafine Particle Mass <2 μm,[2],28.5 µg
same,MMAD,[2],1.6 μm
same,Mid Fine particle Fraction,[2],17.1%
same,Delivered Dose,[2],88.5 µg
same,Mid Fine Particle Mass,[2],15.2 µg
same,Fine Particle Mass,[2],43.6 µg
same,Fine Particle Fraction,[2],49.3%
"C[N+]1(C)CCC(OC(=O)C(O)(c2ccccc2)C2CCCC2)C1 (racemic) [GB, glycopyrronium bromide]",Extrafine Particle Fraction <1 μm,[2],9.8%
same,Extrafine Particle Fraction <2 μm,[2],26.4%
same,Extrafine Particle Mass <1 μm,[2],1.1 µg
same,Extrafine Particle Mass <2 μm,[2],2.9 µg
same,MMAD,[2],1.9 μm
same,Mid Fine particle Fraction,[2],21.6%
same,Delivered Dose,[2],11.1 µg
same,Mid Fine Particle Mass,[2],2.4 µg
same,Fine Particle Mass,[2],5.4 µg
same,Fine Particle Fraction,[2],48.1%
